What is called TGI is the concentration at which net growth stops. A lower TGI goes with greater sensitivity of the cells. As a reminder, the GI50 is the concentration giving 50% growth inhibition.

The record followed here is PubChem BioAssay (NCI).

Among the test systems are ACHN renal; OVCAR-8 ovarian; RPMI-8226 leukemia; SR leukemia; HS 578T breast; T-47D breast; A498 renal; BT-549 breast; NCI-H226 lung; MDA-N.
Test in all cases: DTP human tumour cell line panel, 48 h

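How tested: cells in 96-well plates exposed to compound for 48 hours at five concentrations. The concentration for 50% growth inhibition is given as GI50. TGI is the concentration that stops growth completely.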 Where a SMILES comes first, the peptide text is derived from it. The star is where a group is joined. Palmitoyl = CCCCCCCCCCCCCCCC(=O)*

`O=C(/C=C/c1ccc(Oc2cc(C(=O)/C=C/c3ccc(O)cc3)c(O)cc2O)cc1)c1ccc(O)cc1O`: the TGI with ACHN renal is 22.2 µM; in the assay on OVCAR-8 ovarian, 6.09 µM; in the assay with RPMI-8226 leukemia, 8.09 µM; with SR leukemia it was greater than 100 µM; in the assay on HS 578T breast, greater than 100 µM; in the assay with T-47D breast, 27.4 µM. Further, the TGI with A498 renal came to 14.1 µM; in the assay on BT-549 breast it was 39.3 µM.
`CON(C)c1nc(N(C)OC)nc(N(C)OC)n1`: the TGI in the assay with ACHN renal, with OVCAR-8 ovarian, in the assay with RPMI-8226 leukemia, with SR leukemia, in the assay on HS 578T breast and in the assay on NCI-H226 lung was greater than 10 µM in each case. In addition, the TGI with MDA-N, in the assay on T-47D breast and in the assay on A498 renal was greater than 10 µM in each case.
On to `O=c1c2cc(S(=O)(=O)O)ccc2nc(COc2ccc(Oc3ccc(Cl)cc3Cl)cc2)n1-c1ccc(Oc2ccc(Cl)cc2)cc1Cl`, for which the concentration for total growth inhibition (TGI) in the assay with ACHN renal is 56.6 µM; in the assay on OVCAR-8 ovarian it was 44.3 µM; in the assay on RPMI-8226 leukemia it was 65.4 µM; with SR leukemia it was 46.5 µM; in the assay with HS 578T breast, 42.3 µM; in the assay with NCI-H226 lung, 48.9 µM. For the same compound, the TGI in the assay on MDA-N is 59.2 µM; in the assay with T-47D breast it was greater than 100 µM; in the assay with A498 renal, 57 µM; in the assay on BT-549 breast, 34.3 µM.
Take `Cn1c(-c2ccccc2)cc(-c2cccs2)c1-c1cccs1`: the TGI in the assay with OVCAR-8 ovarian, with RPMI-8226 leukemia, with NCI-H226 lung and in the assay on A498 renal was greater than 100 µM throughout.
Turning to `Cc1cc(C)nc(NS(=O)(=O)c2ccc(NC(=O)c3cccc4c(Nc5ccc(S(=O)(=O)Nc6cc(C)on6)cc5)c5ccccc5nc34)cc2)n1`, the figures for the TGI with ACHN renal, in the assay on SR leukemia and with A498 renal were greater than 100 µM, 80.3 µM and 68.5 µM, respectively.
With `CC(C)C(C(=O)O)N1C(=O)c2ccccc2C1=O` (stereo not given), the TGI in the assay on ACHN renal, in the assay on OVCAR-8 ovarian, in the assay with RPMI-8226 leukemia, in the assay on HS 578T breast, with NCI-H226 lung and with MDA-N was greater than 100 µM in each case. Further, the TGI with T-47D breast, with A498 renal and with BT-549 breast was greater than 100 µM throughout.
For the compound `COC(=O)c1c(C)n([O-])c2cc(Cl)c(Cl)cc2[n+]1=O`, the concentration for total growth inhibition (TGI) with ACHN renal is 62.8 µM; in the assay with OVCAR-8 ovarian, 59.3 µM; in the assay with RPMI-8226 leukemia, 19.3 µM; with SR leukemia it was greater than 100 µM; in the assay on HS 578T breast, 65.6 µM; in the assay with MDA-N, greater than 100 µM. Moreover, the results for the total growth inhibition concentration (TGI) in the assay with T-47D breast, in the assay with A498 renal and in the assay on BT-549 breast were greater than 100 µM, 40.2 µM and greater than 100 µM, respectively.
As for `CC12C=CC(=O)C=C1CCC1C3CCC(O)(C(=O)CO)C3(C)CC(O)C12F` (stereo not given), the TGI in the assay on ACHN renal, with OVCAR-8 ovarian, with RPMI-8226 leukemia, in the assay on SR leukemia, in the assay with HS 578T breast and in the assay with NCI-H226 lung was greater than 100 µM each time. Further, the TGI in the assay on MDA-N, with T-47D breast, in the assay on A498 renal and with BT-549 breast was greater than 100 µM throughout.
In the case of `C[N+](C)(C)c1ncnc2c1ncn2C1CC(O)C(CO)O1` (stereo not given), the TGI with ACHN renal, in the assay on OVCAR-8 ovarian, in the assay with RPMI-8226 leukemia, with SR leukemia, in the assay with HS 578T breast and with NCI-H226 lung was greater than 100 µM each time. Further, the TGI in the assay on MDA-N, in the assay on T-47D breast, in the assay on A498 renal and in the assay on BT-549 breast was greater than 100 µM throughout.
Consider `CCCC1CCC(=C2C(=O)CCC2=O)O1` (stereo not given), for which the TGI with ACHN renal, in the assay with OVCAR-8 ovarian, with RPMI-8226 leukemia, in the assay on SR leukemia, in the assay on HS 578T breast and in the assay with NCI-H226 lung was greater than 100 µM throughout. The TGI in the assay on MDA-N, in the assay on T-47D breast and in the assay with BT-549 breast was greater than 100 µM throughout.
For `COC(=O)C1=C(OC(=O)/C(=C/c2ccc(Cl)cc2)c2ccc(Cl)cc2)C(C(=O)OC)[C@]2(O)[C@@H](C(=O)OC)[C@H]1C[C@@H](c1ccccc1)[C@@H]2C(=O)OC` (stereo not given in full), the total growth inhibition concentration (TGI) in the assay with ACHN renal, in the assay on OVCAR-8 ovarian, in the assay on NCI-H226 lung, in the assay on MDA-N, with T-47D breast and in the assay on BT-549 breast was greater than 100 µM each time.
With `CC(N)Cc1ccc(Cl)c(Cl)c1` (stereo not given), the TGI with ACHN renal is greater than 84.6 µM; in the assay with OVCAR-8 ovarian it was greater than 100 µM; with RPMI-8226 leukemia it was greater than 84.6 µM; in the assay on SR leukemia, 48.1 µM; in the assay with NCI-H226 lung it was greater than 100 µM; in the assay with A498 renal it was greater than 90.6 µM.
With `CCCCCCCCCCCCCCCC(=O)N1CCCC1C(=O)NCC(=O)NC(Cc1ccccc1)C(=O)NC(C)C(=O)NC(CO)C(=O)NC(Cc1ccc(O)cc1)C(=O)NC(CCCCN)C(=O)NC(CC(C)C)C(=O)NC(CCCN=C(N)N)C(=O)N1CCCC1C(=O)NCC(N)=O` (stereo not given) (Palmitoyl-PGFASYKLRPG-NH2; configuration not given here), the GI50 was 24 µM with OVCAR-8 ovarian; 4.36 µM in the assay on RPMI-8226 leukemia; 12 µM with SR leukemia; 39.7 µM with HS 578T breast; 15.9 µM in the assay on NCI-H226 lung; 17.4 µM in the assay with T-47D breast. Further, the GI50 with A498 renal is 37.4 µM; in the assay on BT-549 breast it was 21.9 µM. The TGI in the assay with OVCAR-8 ovarian is 51.9 µM; in the assay on RPMI-8226 leukemia it was 16.4 µM; with SR leukemia, 24.5 µM; in the assay with HS 578T breast, greater than 100 µM; with NCI-H226 lung, 35.6 µM; in the assay with T-47D breast, 39.6 µM. In addition, the results for the total growth inhibition concentration (TGI) with A498 renal and with BT-549 breast were greater than 100 µM and 45.3 µM, respectively.
For the compound `O[C@@]12Cc3c([nH]c4ccccc34)[C@@H]3Oc4cccc5c4[C@@]31CCN(CC1CC1)[C@@H]2C5`, the TGI in the assay on ACHN renal is 34.8 µM; in the assay with OVCAR-8 ovarian, 29 µM; with RPMI-8226 leukemia it was 41.2 µM; in the assay with SR leukemia, greater than 100 µM; with MDA-N it was 33.9 µM; with A498 renal, 40.5 µM. This compound also registered a TGI in the assay with BT-549 breast of 35.3 µM.
Take `CCOC(=O)c1c(C)n(-c2ccc(Cl)cc2)c2c1cc(O)c1[nH]c3c(c12)CCCC3`: the concentration for total growth inhibition (TGI) with ACHN renal was greater than 100 µM; with OVCAR-8 ovarian it was greater than 100 µM; in the assay with RPMI-8226 leukemia, greater than 100 µM; in the assay on SR leukemia, 43.3 µM; in the assay with HS 578T breast, 72.4 µM; with NCI-H226 lung it was greater than 100 µM. The TGI in the assay with MDA-N, in the assay with T-47D breast, in the assay with A498 renal and in the assay on BT-549 breast was greater than 100 µM each time.
For `CN1C(c2ccccc2)CC(=O)C(N)C1c1ccccc1` (stereo not given), the TGI is greater than 100 µM in the assay on ACHN renal; greater than 81.2 µM in the assay on OVCAR-8 ovarian; 44.1 µM with RPMI-8226 leukemia; greater than 60.2 µM in the assay with SR leukemia; greater than 100 µM in the assay on NCI-H226 lung; greater than 100 µM with A498 renal.
In the case of `Nc1nc(O)c2ncn([C@H]3CC[C@@H](CO)O3)c2n1`, the TGI in the assay on OVCAR-8 ovarian, with RPMI-8226 leukemia, in the assay with SR leukemia, with HS 578T breast, with NCI-H226 lung and in the assay with MDA-N was greater than 100 µM throughout. For the same compound, the TGI with T-47D breast, in the assay with A498 renal and in the assay with BT-549 breast was greater than 100 µM in each case.
As to `Cc1ccc(-c2nc(N/N=C/C=C/c3ccccc3)c3ccccc3n2)cc1`, the TGI is 75.9 µM in the assay on ACHN renal; greater than 100 µM in the assay on OVCAR-8 ovarian; greater than 100 µM with RPMI-8226 leukemia; greater than 100 µM with SR leukemia; greater than 100 µM with HS 578T breast; greater than 100 µM in the assay with NCI-H226 lung. The TGI is greater than 100 µM in the assay with MDA-N, greater than 100 µM with T-47D breast and 52.2 µM in the assay on BT-549 breast.
Regarding `Cc1c(-c2ccccc2)[nH]c2cc(Cl)ccc2c1=O`, the TGI with ACHN renal was greater than 100 µM; in the assay with RPMI-8226 leukemia, greater than 100 µM; in the assay with SR leukemia it was greater than 100 µM; in the assay on HS 578T breast, 65.6 µM; in the assay with NCI-H226 lung, 68 µM; in the assay on MDA-N it was greater than 100 µM. Further, the TGI with T-47D breast, with A498 renal and with BT-549 breast was greater than 100 µM each time.
For `CCN1CCC(O)(/C=C/c2ccccc2C)C(C(=O)/C=C/c2ccccc2C)C1` (stereo not given), the TGI with OVCAR-8 ovarian was 7.85 µM; in the assay on SR leukemia, greater than 100 µM; with HS 578T breast it was 16.2 µM; in the assay on MDA-N, 8.88 µM; in the assay with T-47D breast, 4.32 µM; in the assay on A498 renal, 4.55 µM. For the same compound, the concentration for total growth inhibition (TGI) in the assay on BT-549 breast was 6.44 µM.
For the compound `c1cnc2c(c1)ccc1cccnc12`, the TGI is greater than 100 µM in the assay on ACHN renal; greater than 100 µM in the assay on OVCAR-8 ovarian; 7.89 µM with RPMI-8226 leukemia; 4.26 µM in the assay with SR leukemia; 97.8 µM in the assay with HS 578T breast; greater than 23.5 µM in the assay with NCI-H226 lung. The TGI in the assay on MDA-N, with T-47D breast, in the assay with A498 renal and in the assay with BT-549 breast was greater than 100 µM each time.
With `CC1=C(O)C2=C(C(=O)C1=O)[C@@H](C)CC[C@@H]2[C@@H](C)C/C=C/C(C)(C)O`, the TGI in the assay with ACHN renal was 98 µM; in the assay with OVCAR-8 ovarian it was greater than 100 µM; in the assay with RPMI-8226 leukemia, 56.3 µM; in the assay on SR leukemia, 80.4 µM; in the assay on HS 578T breast, greater than 100 µM; in the assay on NCI-H226 lung, greater than 100 µM. The concentration for total growth inhibition (TGI) with MDA-N is greater than 100 µM; in the assay on T-47D breast, 78.2 µM; in the assay with A498 renal, greater than 100 µM.
As for `Nc1[nH]c(=O)nc2c1cnn2C1CCCCO1` (stereo not given), the TGI with ACHN renal, in the assay on OVCAR-8 ovarian, with RPMI-8226 leukemia, with SR leukemia, in the assay with NCI-H226 lung and with A498 renal was greater than 100 µM in each case.
With `C=C(C)C1Cc2c(c3ccccc3n(C)c2=O)O1` (stereo not given), the TGI in the assay with ACHN renal, in the assay with OVCAR-8 ovarian, with RPMI-8226 leukemia, in the assay with NCI-H226 lung and in the assay on A498 renal was greater than 100 µM each time.
Turning to `c1ccc(-c2nc(N3CCNCC3)c3oc(-c4ccccc4)nc3n2)cc1`, the GI50 in the assay on ACHN renal is 1.64 µM; with RPMI-8226 leukemia, 2.03 µM; in the assay on SR leukemia it was 0.259 µM; in the assay on HS 578T breast it was 1.88 µM; with NCI-H226 lung it was 2.11 µM; in the assay with T-47D breast, 2.1 µM. Moreover, in the assay on A498 renal, the GI50 is 1.62 µM. Moreover, the TGI with ACHN renal turned out to be 3 µM; with RPMI-8226 leukemia it was 5.16 µM; in the assay on SR leukemia, 0.793 µM; with HS 578T breast it was 4.07 µM; in the assay with NCI-H226 lung it was 5.05 µM; in the assay on T-47D breast, 4.95 µM. Further, the TGI with A498 renal is 3.07 µM.
